In patent publication US7462598B2, “Antimicrobial theta defensins, analogs thereof, and methods of use” (priority 2002, dated 2008):
Bridge positions count the residues as written; N and C are the ends. Peptide text beside a SMILES is read from it.

What was measured:
[1] = test system: C. albicans 16820; experiment: Cell-suspension microbicidal assay (MMC); assay type: cell-based, Candida albicans; conditions: for MMC, C. albicans: lowest concentration that reduced cell viability by 99.9%, 10 mM PIPES, 5 mM glucose, pH 7.4, 2 h 37° C.
Protocol: (§1) To test microbicidal activities, the activities of each peptide against S. aureus 502a, E. coli ML35, and C. albicans 16820 were assessed essentially as described in Example I with modifications to allow for simultaneous analysis of all twenty peptides. Briefly, two-fold serial dilutions of each peptide (in 0.01% acetic acid 0.062-8.0 μg/ml final concentrations) were mixed with 10 mM PIPES, pH 7.4, containing 5 mM glucose in sterile polystyrene 96-well plates (Corning, N.Y.). Aliquots of log-phase bacteria or yeast were added to a 2×10^6 CFU/ml final density as determined by A620. After 2 h incubation at 37° C., 15 μl of the incubation mixture was removed and serially diluted ten-fold from 1:10 to 1:10^6 in trypticase soy broth (bacteria) or Sabaraud dextrose broth (C. albicans). The diluted cell suspensions were grown 24-48 h at 37° C. until cell pellets were visible. Microbicidal activity was determined as absence of growth and was correlated to CFU/ml in control experiments where activity was determined in parallel by colony counting (see Example I). Absence of growth at the 1:10^3 dilution is equivalent to a 3-log reduction in microbial viability.
(§2) The microbicidal activities of each peptide against E. coli ML35, S. aureus 502a, and C. albicans 16820 were determined with cell-suspension microbicidal assays in 96-well plates (see Example II). Briefly, log-phase cells (2×10^6 CFU/ml final) were incubated with increasing concentrations of peptides (0-8 μg/ml final) in 50 μl of 10 mM PIPES, 5 mM glucose, pH 7.4, for 2 h at 37° C. Incubation mixtures were diluted 1:10 to 1:10^6 with trypticase-soy broth (bacteria) or Sabaraud dextrose broth (fungi) and incubated at 37° C. for 24-48 h until cell pellets were visible. Microbicidal activities (confirmed in control experiments as described in Example II) were determined as the absence of a cell pellet in the various dilutions. Peptide concentrations that caused ≧99.9% killing (absence of a cell pellet at 1:10^3 dilution) were taken as the minimum microbicidal concentrations (MMC).

[2] = test system: S. aureus 502a, E. coli ML35, and C. albicans 16820; experiment: Cell-suspension microbicidal assay, statements across the test organisms (lowest MMC, overall ranges); assay type: cell-based; conditions: peptide concentration that kill 99.9% of either S. aureus, E. coli, or C. albicans; lowest MMC value
Protocol: as §1, §2
(§3) A selectivity index (SI=H/M) was calculated as a ratio of a peptide concentration (μg/ml) that causes 3% hemolysis (H) obtained from a dose-dependent hemolysis plot over 0.3 to 3 μg/ml of each peptide in PBS and the lowest MMC value (M) for any of the three test microorganisms (see Example II; Table 2).

[3] = test system: S. aureus 502a; experiment: Cell-suspension microbicidal assay (MMC); assay type: cell-based, Staphylococcus aureus; conditions: for MMC, S. aureus: lowest concentration that reduced cell viability by 99.9%, 10 mM PIPES, 5 mM glucose, pH 7.4, 2 h 37° C.
Protocol: as §1, §2

[4] = test system: S. aureus 502a; assay type: cell-based, Staphylococcus aureus; conditions: 10% normal human serum; FIG. 7
Protocol: Dose-dependent staphylocidal activity of each peptide was determined in assays containing 10% normal human serum. Percentages of killing are relative to activities of peptide-containing incubations in which serum was omitted.
To determine the effects of serum, salt, calcium chloride and magnesium chloride on microbicidal activities, peptide activities were determined in assays containing varying ionic strength, divalent cations, and serum. The effect of serum on staphylocidal activity of each peptide was determined by incubating 1×10^6 CFU/ml of S. aureus 502a with increasing peptide concentrations (0.5-4 μg/ml) in 10 mM PIPES, pH 7.4, containing 10% normal human serum for 2 h at 37° C. The effect of sodium chloride on staphylocidal activities was assessed with 5 μg/ml of each peptide in 10 mM PIPES, pH 7.4, containing varying concentrations of sodium chloride (0-160 mM). Effects of divalent cations, CaCl2, or MgCl2 (0-5.6 mM) were assessed in microbicidal assays against E. coli ML35. Bactericidal activities were determined by colony counting (see Example II), and microbicidal potencies were expressed as percent killing as follows:
[formula] where A=surviving bacteria (CFU/ml) after initial incubation with each peptide in buffer containing serum, salt, or divalent cations and Ao=bacterial CFU/ml in the “no-peptide” controls.

[5] = test system: E. coli ML35; experiment: Membrane permeabilization assay (ONPG hydrolysis); assay type: cell-based, Escherichia coli; conditions: rates at 1 μg/ml concentration of each peptide
Protocol: For the membrane permeabilization assay, the permeabilization of bacterial cytoplasmic membranes was determined by measuring hydrolysis of o-nitrophenyl-β-D-galactcpyranoside (ONPG) in E. coli ML35 (Sitaram et al., FEBS Lett. 303:265-268 (1992); Lehrer et al.,. J. Immunol. Methods 108:153-158 (1988)). Peptides dissolved in 5 μl of 0.01% acetic acid were two-fold serially diluted with 10 mM PIPES, pH 7.4, containing 3 mM ONPG, to final peptide concentrations of 0-8.0 μg/ml. Log-phase bacteria, prepared in PIPES buffer as described for the microbicidal assay (see Example I), were added to 1×10^6 CFU/ml final density in a final volume of 90 μl. ONPG hydrolysis was measured at 405 nm for 60 min using a SpectraMAX 190 plate reader and SOFTmaxPRO 3.1 (Molecular Devices Corp., CA). […]

[6] = test system: human erythrocytes; experiment: Hemolysis assay; assay type: cell-based
Protocol: For the hemolysis assay, the hemolytic activity of each peptide was determined by the method of Tam et al. (Tam et al., Eur. J. Biochem. 267:3289-3300 (2000)). Blood was obtained from a healthy donor in accordance to a protocol approved by the Institutional Review Board. Normal human serum was prepared from the same individual and stored at −20° C. Red blood cells (RBC) were prepared from blood collected in EDTA. RBC were harvested at 234×g for 10 min, 22° C., washed four times with 10 mM sodium phosphate, 150 mM NaCl, pH 7.4 (PBS), containing 4 mM EDTA and resuspended in PBS without EDTA. Peptides dissolved in 10 μl 0.01% HOAc were diluted with PBS to final concentrations of 0.3-100 μg/ml. RBC were added to a 2% final density in 100 μl. Incubation mixtures were also prepared with 10% serum. After 1 h incubation at 37° C., the cell suspensions were centrifuged at 234×g for 10 min, 22° C. Fifty-μl samples of the supernatants were removed, and the absorbance at 405 nm (A) was measured. Hemolytic activity of each peptide was calculated relative to lysis by 1% NP-40 using the following formula:
as §3

[7] = test system: E. coli ML35; experiment: Cell-suspension microbicidal assay (MMC); assay type: cell-based, Escherichia coli; conditions: lowest concentration that reduced cell viability by 99.9%; 10 mM PIPES, 5 mM glucose, pH 7.4; 2 h 37° C.
Protocol: as §1, §2

[8] = test system: white blood cells; experiment: Cytokine-antibody array of supernatants of white blood cells (ex vivo LPS model); assay type: cell-based; conditions: 18 h, relative to control supernatants
Protocol: The anti-inflammatory properties of RTD-1 were evaluated by determining the relative levels of cytokines produced by stimulated white blood cells. Blood was obtained from healthy donors in accordance with institutional guidelines. Serum was prepared from the same donor following coagulation and high-speed centrifugation (12,000-15,000 ×g). White blood cells, (WBC) were prepared from EDTA anti-coagulated blood using an established protocol. WBC were suspended in RPMI 1640 (Gibco; Invitrogen, Carlsbad Calif.) containing 10% FBS and 1% autologous serum. Aliquots containing 2×10^6 cells were added to each well of a sterile 12-well plate, and cells were allowed to incubate for 18 h at 37° C. in a humidified incubator with 5% carbon dioxide. […] Cell-free supernatants were collected by centrifugation at 12,000×g and incubated with cytokine-antibody arrays per the manufacturer's protocol (RayBiotech; Norcross Ga.). The cytokines on each array were visualized with a chemi-luminescent kit (Pierce; Rockford Ill.) and enumerated by spot density analysis with ChemiImager 5.5 (Alpha Innotech; San Leandro Calif.).

[9] = LPS (100 ng/ml) + RTD-1 (100 ng/ml)

CC(C)C[C@H](NC(=O)[C@H](CCCNC(=N)N)NC(=O)CNC(=O)CNC(=O)[C@@H](N)CCCNC(=N)N)C(=O)N[C@H]1CSSC[C@@H](C(=O)N[C@H](C(=O)NCC(=O)N[C@@H](CCCNC(=N)N)C(N)=O)C(C)C)NC(=O)[C@H](C(C)C)NC(=O)[C@@H]2CSSC[C@H](NC(=O)[C@H](Cc3ccc(O)cc3)NC1=O)C(=O)N[C@@H](CCCNC(=N)N)C(=O)N[C@@H](CCCNC(=N)N)C(=O)N[C@@H](CCCNC(=N)N)C(=O)N[C@@H](Cc1ccccc1)C(=O)N2 [PG-1, reference compound]
MMC, C. albicans [1]: 0.8 µg/mL
M [2]: 0.38 µg/mL
MMC, S. aureus [3]: 0.4 µg/mL
staphylocidal activity in assay containing serum (in words) [4]: unaffected
ONPG hydrolysis [5]: 11.3 (A405/sec) · 10^−5

CC[C@H](C)[C@@H]1NC(=O)[C@@H]2CSSC[C@H](NC(=O)[C@H](CCCNC(=N)N)NC(=O)[C@@H]3CSSC[C@H](NC1=O)C(=O)N[C@@H]([C@@H](C)O)C(=O)N[C@@H](CCCNC(=N)N)C(=O)NCC(=O)N[C@@H](Cc1ccccc1)C(=O)N3)C(=O)N[C@@H](CC(C)C)C(=O)N[C@H]1CSSC[C@H](NC(=O)[C@H](C(C)C)NC(=O)CNC(=O)[C@H](CCCNC(=N)N)NC(=O)[C@H](CCCNC(=N)N)NC1=O)C(=O)N[C@@H](CCCNC(=N)N)C(=O)N2 [RTD-1] (cyclo(GFCRCLCRRGVCRCICTR); disulfide 3-16, 5-14, 7-12)
H ([6]; peptide concentration that causes 3% hemolysis, calculated from dose-dependent hemolysis plot over 0.3-3 μg/ml in PBS): 5.5 µg/mL
MMC, C. albicans [1]: 1.0 µg/mL
M [2]: 1 µg/mL
MMC, S. aureus [3]: 1.0 µg/mL
ONPG hydrolysis [5]: 9.0 (A405/sec) · 10^−5
MMC, E. coli [7]: 2.0 µg/mL
ENA-78 fold increase [8, 9]: 10 fold
GCSF fold increase [8, 9]: 1 fold
GM-CSF fold increase [8, 9]: 1 fold
GRO fold increase [8, 9]: 19 fold
IFN-γ fold increase [8, 9]: 60 fold
IL-1β fold increase [8, 9]: 118 fold
IL-2 fold increase [8, 9]: 1 fold
IL-5 fold increase [8, 9]: 118 fold
IL-6 fold increase [8, 9]: 2 fold
IL-7 fold increase [8, 9]: 1 fold
IL-10 fold increase [8, 9]: 2 fold
MCP-2 fold increase [8, 9]: 4 fold
MCSF fold increase [8, 9]: 1 fold
MDC fold increase [8, 9]: 4 fold
MIP-1-δ fold increase [8, 9]: 1 fold
RANTES fold increase [8, 9]: 237 fold
SCF fold increase [8, 9]: 1 fold
SDF-1 fold increase [8, 9]: 178 fold
TARC fold increase [8, 9]: 60 fold
TGF-β1 fold increase [8, 9]: 1 fold
TNF-α fold increase [8, 9]: 1 fold
ENA-78 fold increase ([8]; stimulus alone, 100 ng/ml): 1 fold
GCSF fold increase ([8]; stimulus alone, 100 ng/ml): 1 fold
GM-CSF fold increase ([8]; stimulus alone, 100 ng/ml): 1 fold
GRO fold increase ([8]; stimulus alone, 100 ng/ml): 4 fold
IFN-γ fold increase ([8]; stimulus alone, 100 ng/ml): 1 fold
IL-1β fold increase ([8]; stimulus alone, 100 ng/ml): 178 fold
IL-2 fold increase ([8]; stimulus alone, 100 ng/ml): 1 fold
IL-5 fold increase ([8]; stimulus alone, 100 ng/ml): 60 fold
IL-6 fold increase ([8]; stimulus alone, 100 ng/ml): 2 fold
IL-7 fold increase ([8]; stimulus alone, 100 ng/ml): 1 fold
IL-10 fold increase ([8]; stimulus alone, 100 ng/ml): 1 fold
MCP-2 fold increase ([8]; stimulus alone, 100 ng/ml): 2 fold
MCSF fold increase ([8]; stimulus alone, 100 ng/ml): 60 fold
MDC fold increase ([8]; stimulus alone, 100 ng/ml): 2 fold
MIP-1-δ fold increase ([8]; stimulus alone, 100 ng/ml): 1 fold
RANTES fold increase ([8]; stimulus alone, 100 ng/ml): 1 fold
SCF fold increase ([8]; stimulus alone, 100 ng/ml): 1 fold
SDF-1 fold increase ([8]; stimulus alone, 100 ng/ml): 1 fold
TARC fold increase ([8]; stimulus alone, 100 ng/ml): 1 fold
TGF-β1 fold increase ([8]; stimulus alone, 100 ng/ml): 1 fold
TNF-α fold increase ([8]; stimulus alone, 100 ng/ml): 1 fold

CC(C)C[C@@H]1NC(=O)[C@H](CCCNC(=N)N)NC(=O)CNC(=O)CNC(=O)[C@H](CCCNC(=N)N)NC(=O)[C@H](CCCNC(=N)N)NC(=O)CNC(=O)[C@H](C(C)C)NC(=O)[C@@H]2CSSC[C@H](NC1=O)C(=O)N[C@@H](Cc1ccc(O)cc1)C(=O)N[C@H]1CSSC[C@H](NC(=O)[C@H](Cc3ccccc3)NC(=O)[C@H](CCCNC(=N)N)NC(=O)[C@H](CCCNC(=N)N)NC(=O)[C@H](CCCNC(=N)N)NC1=O)C(=O)N[C@@H](C(C)C)C(=O)N2 [cPG-1] (cyclo(GGRLCYCRRRFCVCVGRR); disulfide 5-14, 7-12)
hemolysis [6]: 40-50%
fold lower candidacidal potency than native PG-1 ([1]; from MMC, Table 2): 3 fold
MMC, C. albicans [1]: 2.5 µg/mL
M [2]: 1 µg/mL
fold lower staphylocidal potency than native PG-1 ([3]; from MMC, Table 2): 5 fold
MMC, S. aureus [3]: 2.0 µg/mL
ONPG hydrolysis [5]: 11.0 (A405/sec) · 10^−5
MMC, E. coli [7]: 1.0 µg/mL
